Assay results: patent US20260158194A1, “DRUG COATED BALLOON” (ARTERIUS LIMITED, priority 2021, published 2026)

What was measured:
[1] = Simulated tracking and deployment (ASTM F3320-18) into hydrogel mock-vessel (Examples 14-17); type: physicochemical; conditions: single drug
Method: In this example, a hydrogel was used to mimic the arterial tissue wall to assess the drug release profile and simulate the tracking and deployment process.
Based on the process described in ASTM F3320-18, folded balloons were pushed through a 37° C. heated anatomical model filled with PBS for 30 seconds. At the end of the track, balloons were then inflated to nominal pressure inside the hydrogel for 1 minute. The PBS inside the track was collected and replaced, and the balloon withdrawn back through the track. The PBS in the track was collected, and the coated balloon was inflated to nominal pressure for a final drug release in methanol for 5 minutes. The drug concentration in the two PBS samples and methanol sample was measured by UV-VIS. This was used to calculate the drug dose delivered to the hydrogel site.
In this example, the drug release profiles of balloons dip coated with methanol solutions containing 20% excipient Pluronic F108 and 8% of either dipyridamole or sirolimus were assessed. After coating, the balloons were dried and folded.
In this example, balloons were spray coated with a methanol solution containing 1% excipient Pluronic F108, and 2% of either dipyridamole or sirolimus. After drying and folding the balloons were sterilised.

[2] = Drug release profile of spray-coated balloons, PBS then methanol elution, UV (Example 4); type: physicochemical
Method: The technique of spray coating was introduced using a 5% solution of high molecular weight polymer PEG-PPO-PEG (Mn=14,600) in methanol. This spray coating method was used to add multiple layers of coating and ensured the correct area of the balloon was coated in a more precise fashion.
In this example, a set of experiments was conducted to assess the drug release profiles of Sirolimus and Dipyridamole. The samples were spray coated with their coating solutions with nitrogen gas at 1 bar, and 20 rotations were done (10 clockwise and 10 anticlockwise). The separation from the balloon and spray nozzle was approximately 15 cm.
The drug release profiles of both Dipyridamole and Sirolimus were determined using an excipient polymer PEG-PPO-PEG (Mn=14,600) with organic carrier solvent methanol. The coating solution quantities can be found in Table 3.
The resulting coated balloons were eluted in 8 mL of PBS for 3 minutes, before being eluted into 8 mL of methanol for 5 minutes, for full release of the coating.

In the case of `OCCN(CCO)c1nc(N2CCCCC2)c2nc(N(CCO)CCO)nc(N3CCCCC3)c2n1` [dipyridamole], the “drug lost when tracking to the site” value ([1]; dip coated, 20% Pluronic F108 and 8% drug) is reported as “considerably less dipyridamole than sirolimus was lost”, the “loaded drug released during deployment to the hydrogel target site” value ([1]; spray coated, 1% Pluronic F108 and 2% drug, sterilised) is reported as 71.1% and the “Post-PBS reading @415 nm” value ([2]; 8 mL PBS 3 minutes, spray coated, PEG-PPO-PEG Mn 14,600) is reported as 0.042. For the same compound, the “Post-Methanol reading @415 nm” value ([2]; 8 mL methanol 5 minutes after PBS elution) was 0.087 and the “drug released during elution time” value ([2]; printed '5-minute elution time', from UV reading and calibration coefficient, PEG-PPO-PEG polymer) was 32.6%.
